Results from US20210100786A1, “Pharmaceutical Formulations” (CIPLA LIMITED, priority 2018, published 2021).

Experiments:
[1] = system: Caco-2 cells; details: cited from earlier work
[2] = system: Caco-2 cells

SMILES: COc1nc2ccc(Br)cc2cc1[C@@H](c1ccccc1)[C@@](O)(CCN(C)C)c1cccc2ccccc12 [Bedaquiline]
- P-gp substrate status [1]: known P-gp substrate
- absorption [2]: increased
- efflux ratio (Papp B-A/Papp A-B) [2]: decreasing the efflux ratio
